Data: ChEMBL document CHEMBL3421604, “Treating pain with somatostatin receptor subtype 4 agonists” (ACS Med Chem Lett, 2015)

Columns and labels:
[1] = biological target: Somatostatin receptor type 5 (Homo sapiens, UniProt P35346); assay: Displacement of [3-125l-Tyr]-somatostatin-(1 -14) from human recombinant somatostatin 5 receptor expressed in CHO cell membranes incubated for 180 mins
[2] = Metabolic stability in pooled human liver microsomes assessed as half life at 0.1 uM at 37 degC in presence of NADPH by LC-MS/MS method; type: ADME
[3] = biological target: Somatostatin receptor type 2 (Homo sapiens, UniProt P30874); assay: Displacement of [3-125l-Tyr]-somatostatin-(1 -14) from human recombinant somatostatin 2 receptor expressed in CHO cell membranes incubated for 180 mins
Somatostatin receptor type 2, sequence (P30874 whole entry): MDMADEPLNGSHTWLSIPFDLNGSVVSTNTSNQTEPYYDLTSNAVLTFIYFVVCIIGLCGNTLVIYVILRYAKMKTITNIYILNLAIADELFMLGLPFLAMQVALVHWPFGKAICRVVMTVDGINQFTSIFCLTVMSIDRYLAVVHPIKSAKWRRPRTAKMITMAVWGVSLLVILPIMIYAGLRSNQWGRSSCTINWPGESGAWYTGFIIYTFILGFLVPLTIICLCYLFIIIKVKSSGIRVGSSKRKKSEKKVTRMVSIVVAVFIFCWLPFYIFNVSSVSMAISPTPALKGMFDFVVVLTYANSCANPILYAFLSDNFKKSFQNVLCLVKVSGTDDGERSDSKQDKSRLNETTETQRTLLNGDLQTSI

[4] = biological target: Somatostatin receptor type 3 (Homo sapiens, UniProt P32745); assay: Displacement of [3-125l-Tyr]-somatostatin-(1 -14) from human recombinant somatostatin 3 receptor expressed in CHO cell membranes incubated for 180 mins
Somatostatin receptor type 3, sequence (P32745 whole entry): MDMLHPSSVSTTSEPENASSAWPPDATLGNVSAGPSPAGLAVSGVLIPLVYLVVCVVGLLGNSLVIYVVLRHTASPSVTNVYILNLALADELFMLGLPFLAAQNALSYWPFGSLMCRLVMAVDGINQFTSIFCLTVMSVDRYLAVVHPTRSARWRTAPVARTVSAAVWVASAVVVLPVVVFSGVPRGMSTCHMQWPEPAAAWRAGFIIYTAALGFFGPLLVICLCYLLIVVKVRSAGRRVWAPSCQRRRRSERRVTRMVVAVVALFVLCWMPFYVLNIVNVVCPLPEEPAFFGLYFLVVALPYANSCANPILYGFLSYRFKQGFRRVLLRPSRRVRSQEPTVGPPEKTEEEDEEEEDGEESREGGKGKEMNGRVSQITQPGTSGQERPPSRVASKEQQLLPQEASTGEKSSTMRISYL

[5] = biological target: Somatostatin receptor type 1 (Homo sapiens, UniProt P30872); assay: Displacement of [3-125l-Tyr]-somatostatin-(1 -14) from human recombinant somatostatin 1 receptor expressed in CHO cell membranes incubated for 180 mins
Somatostatin receptor type 1, sequence (P30872 whole entry): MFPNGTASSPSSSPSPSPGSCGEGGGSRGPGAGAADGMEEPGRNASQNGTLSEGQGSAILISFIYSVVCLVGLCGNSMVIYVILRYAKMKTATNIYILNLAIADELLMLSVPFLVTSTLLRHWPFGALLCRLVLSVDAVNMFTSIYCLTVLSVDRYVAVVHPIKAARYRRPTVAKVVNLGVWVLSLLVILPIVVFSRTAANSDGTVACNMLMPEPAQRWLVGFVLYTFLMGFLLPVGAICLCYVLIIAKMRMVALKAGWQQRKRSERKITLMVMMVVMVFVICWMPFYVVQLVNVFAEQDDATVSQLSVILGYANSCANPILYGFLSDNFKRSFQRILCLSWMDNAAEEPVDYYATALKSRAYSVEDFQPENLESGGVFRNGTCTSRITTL

Somatostatin receptor type 5, sequence (P35346 whole entry): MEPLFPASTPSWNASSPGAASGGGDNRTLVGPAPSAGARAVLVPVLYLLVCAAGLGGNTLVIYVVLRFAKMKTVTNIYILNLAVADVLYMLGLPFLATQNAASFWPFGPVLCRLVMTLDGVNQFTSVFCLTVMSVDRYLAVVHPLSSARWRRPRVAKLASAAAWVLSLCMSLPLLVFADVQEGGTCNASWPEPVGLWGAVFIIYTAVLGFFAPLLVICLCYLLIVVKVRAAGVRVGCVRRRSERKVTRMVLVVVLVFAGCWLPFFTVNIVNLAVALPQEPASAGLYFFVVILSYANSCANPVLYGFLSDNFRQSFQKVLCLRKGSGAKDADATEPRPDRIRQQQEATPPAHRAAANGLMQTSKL

| Structure (SMILES) | Ki [1] | half-life at 0.1 µM [2] | Ki [3] | Ki [4] | Ki [5] |
| --- | --- | --- | --- | --- | --- |
| Cc1cc2ccccc2c(C(C)(C)NC(=O)[C@H]2[C@@H]3CNC[C@@H]32)n1 | > 9.85 µM | > 130 min | > 9.59 µM |  |  |
| Cn1nc(C(C)(C)NC(=O)[C@H]2[C@@H]3CNC[C@@H]32)c2ccccc21 | > 9.86 µM | > 130 min | > 9.6 µM | > 8.62 µM |  |
| CC(C)(NC(=O)[C@H]1[C@@H]2CNC[C@@H]21)c1noc2c(F)cccc12 | > 9.85 µM | > 130 min | > 9.6 µM | > 8.6 µM | > 9.09 µM |
| Cc1nc(C(C)(C)NC(=O)[C@H]2[C@@H]3CNC[C@@H]32)c2ccccc2n1 | > 9.86 µM | > 130 min | > 9.63 µM | > 8.71 µM |  |
